Experimental findings from patent US12290073B2, “Anti-microbial compound and methods of use” (SHENZHEN UNIVERSITY, priority 2019, dated 2025) are described below.

Like-named read-outs stand apart in the source and are kept apart here.

For experiment [1], the system named is Staphylococcus Aureus (S. aureus, ATCC 6538). The experiment is described as follows: Anti-microbial performance of finished textiles, shock method (GB/T 20944.3-2007). The format is cell-based. On the procedure: (§1) (1) A comparison of the anti-microbial effects of textiles soaked with compound E obtained in Example 2 and unsoaked textiles was shown in FIG. 1. The experimental procedure was: The anti-microbial performance of the finishing text was tested by the shock method (GB/T 20944.3-2007). The tested microorganism were Gram-negative Escherichia coli (E. coli, ATCC 25922) and Gram-positive Staphylococcus Aureus (S. Aureus, ATCC 6538). The specific experimental operations are as follows: 1) inoculating and culturing the microorganisms at 37° C. for 14 h; diluting the microbial solution to 10^−5 using a sterilized PBS buffer (pH=7.2) to obtain a diluted microbial solution; 2) taking the same size of blank textiles (e.g., cloth) and textiles (finished using compound E and sterilized) in different 50 mL tubes, adding 5 mL of diluted microbial solution to immerse the textiles, sealing the tubes and putting the tubes on a shaker for shaking the tubes under 37° C. at 190 r/min for 24 h; 3) after 24 hours of cultivation, the tubes were taken out and diluted to 10 times using a PBS solution. 100 μL of the diluted microbial solution was added to the nutrient agar medium, uniformly spread to dryness, placed in an incubator, and cultured at 37° C. for 16 h, and then the plates were taken out, and the number of colonies in each plate was counted. The anti-microbial rate was calculated by the following equation: Anti-microbial rate (%)=[…]. Notes: N1 denotes the number of colonies in the finished cloth; N0 denotes the number of colonies in blank cloth.
(§2) The inhibitory effect of compound E obtained in Example 19 on Escherichia coli and Staphylococcus Aureus at various concentrations was shown in FIGS. 3 to 5. The experimental procedure was: using the enzyme linked immunosorbent assay to determine the minimal inhibitory concentration (MIC) value of the anti-microbial drug, and adding the diluted anti-microbial drug solution to the sterilized 100-well plate, respectively. Specifically, 10 ul of drug solution (i.e., a solution of compound E) was added to the first to eleventh holes at concentrations of 100 μg/ml, 90 μg/ml, 80 μg/ml, 70 μg/ml, 60 μg/ml, 50 μg/ml, 40 μg/ml, 30 μg/ml, 20 μg/ml, 10 μg/ml, 5 μg/ml. The drug solution was not added to the twelfth hole which serves as a control group; the bacterial suspension was diluted by LB broth (0.5 Mcfarland Standard dilution to 1000 times with a bacterial concentration of 105 colony-forming unit (CFU)/ml), and 90 μl of the bacterial suspension was added to each well. […] The change curve of OD600 value for 24 h was measured in a microplate reader (automatic growth-curve machine). […]

In experiment [2] the test system is Escherichia coli (E. coli, ATCC 25922). The experiment is described as above. The format is cell-based. The procedure: as §1, §2
Experiment [3] deals with Candida Albicans (C. albicans 10231). The experiment is described as follows: Anti-microbial rate of finished cotton textiles, FZ/T73023-2006 D.8 shocking method. The format is cell-based. The note with it: finishing liquid 1.0 wt %; for killing at 1 %: Candida albicans, read-out: Anti-microbial rate (%) of cotton textiles finished with compound E (1.0 wt %), C. albicans. The source says:
(§3) Each of the reaction products (i.e., compound E) according to Examples 1-21 was used to prepare an anti-microbial agent (e.g., a finishing liquid), and the anti-microbial effects were different depending on compound E and conditions of use.
(§4) Remarks: 1) in the data of anti-microbial rate in Table 5: Examples 1-9 used a soaking-rolling-drying process to finish cotton fabric, where the bath ratio (i.e., the ratio of the weight of a liquid containing compound E to the weight of the cotton fabric) was 20:1, the residual liquid ratio was 90%, and the drying process was conducted at 85° C. for 30 minutes; Examples 10-18 were prepared by a soaking-high speed spinning-drying method, where the bath ratio was 20:1, the residual liquid ratio was 90%, and the drying process was conducted at 85° C. for 20 min; Examples 19-21 were prepared by a spraying-spinning-drying process with a bath ratio of 30:1, a residual liquid ratio of 85% after drying, and the drying process was conducted at 105° C. for 5 minutes.
(§5) 2) Table 5 data test method: FZ/T73023-2006 anti-microbial textiles D.8 shocking method. In addition, the inhibition zone method (FZ/T73023-2006 anti-microbial textiles—Appendix E—inhibition zone method) was used to test whether the active compound (E) was released from the finished cotton textiles, the inhibition zone test result of the 21 examples and zwitterions were 0 mm, and thus compound E was not released from the finished cotton textiles. The anti-microbial finishing agent used in the comparative experiment was zwitterion with the molecular structure
(§6) 3) The composition of the finishing liquid in Table 5 was: compound E 1.0 wt %, sodium bicarbonate 1.0 wt %, and the rest of the finishing liquid was water.

The subject of experiment [4] is Staphylococcus Aureus (S. aureus, ATCC 6538). The experiment is described as above. The format is cell-based. The note with it: for killing at 1 %: Staphylococcus aureus, ATCC6538, finishing liquid 1.0 wt %, read-out: Anti-microbial rate (%) of cotton textiles finished with compound E (1.0 wt %), S. aureus; for Anti-microbial rate (%) of cotton textiles finished with compound E (1.0 wt %), S. aureus: finishing liquid 1.0 wt %.
From the text: as §3, §4, §5, §6

Experiment [5] deals with Escherichia Coli (E. coli, ATCC25922). The experiment is described as above. The experiment is classed as cell-based. The settings on record: for killing at 1 %: Escherichia coli, ATCC25922, finishing liquid 1.0 wt %, read-out: Anti-microbial rate (%) of cotton textiles finished with compound E (1.0 wt %), E. coli; for Anti-microbial rate (%) of cotton textiles finished with compound E (1.0 wt %), E. coli: finishing liquid 1.0 wt %.
From the text: as §3, §4, §5, §6

Experiment [6] deals with Gram-negative bacteria (E. coli). The experiment is described as follows: Anti-microbial performance of finished textiles, live cell counting method. The format is cell-based. The settings on record: textiles soaked with compound E (1.0 wt %). On the procedure:
(§7) (2) A comparison of the anti-microbial effects of textiles soaked with compound E obtained in Example 11 and unsoaked textiles was shown in FIG. 2. The experimental procedure was as follows: the anti-microbial performance of the finished textiles was tested by the live cell counting method, and the anti-mite activity of the house dust mites was evaluated according to the national standard method (GB/T 24253-2009).

Experiment [7] deals with fungi (Aspergillus niger). The description is as above. The experiment is classed as cell-based. The note with it: textiles soaked with compound E (1.0 wt %). The procedure:
as §7

Experiment [8] relates to Gram-positive bacteria (Staphylococcus aureus). The description is as above. The format is cell-based. The note with it: textiles soaked with compound E (1.0 wt %). On the procedure: as §7
The subject of another experiment is house dust mites. Kind of experiment: Anti-mite activity of finished textiles (GB/T 24253-2009). The format is in vivo. On the procedure:
as §7

For a further experiment, the system named is Escherichia coli. The experiment is described as follows: Minimal inhibitory concentration (MIC), OD600 growth curve in microplate reader. The format is cell-based. The note with it: LB broth, OD600 for 24 h, read-out: minimum inhibitory concentration against Escherichia coli. On the procedure: (§8) The inhibitory effect of compound E obtained in Example 19 on Escherichia coli and Staphylococcus Aureus at various concentrations was shown in FIGS. 3 to 5. The experimental procedure was: using the enzyme linked immunosorbent assay to determine the minimal inhibitory concentration (MIC) value of the anti-microbial drug, and adding the diluted anti-microbial drug solution to the sterilized 100-well plate, respectively. Specifically, 10 ul of drug solution (i.e., a solution of compound E) was added to the first to eleventh holes at concentrations of 100 μg/ml, 90 μg/ml, 80 μg/ml, 70 μg/ml, 60 μg/ml, 50 μg/ml, 40 μg/ml, 30 μg/ml, 20 μg/ml, 10 μg/ml, 5 μg/ml. The drug solution was not added to the twelfth hole which serves as a control group; the bacterial suspension was diluted by LB broth (0.5 Mcfarland Standard dilution to 1000 times with a bacterial concentration of 105 colony-forming unit (CFU)/ml), and 90 μl of the bacterial suspension was added to each well. At this time, the drug concentrations of the first to the eleventh holes were 10 μg/ml, 9 μg/ml, 8 μg/ml, 7 μg/ml, and 6 μg/ml, 5 μg/ml, 4 μg/ml, 3 μg/ml, 2 μg/ml, 1 μg/ml, 0.5 μg/ml respectively. The change curve of OD600 value for 24 h was measured in a microplate reader (automatic growth-curve machine). […]

The subject of the next experiment is Staphylococcus Aureus. The description is as above. The format is cell-based. The settings on record: LB broth, OD600 for 24 h, read-out: minimum inhibitory concentration against Staphylococcus Aureus. On the procedure:
as §8

Setting [9] is: both finishing liquids 1.0 wt %.
Where [10] appears, read: finished cloth, concentration of compound E >0.1%.

On to `CCCCCCCC[N+](C)(C)CCOc1nc(Cl)nc(Cl)n1` [Example 1], for which the “anti-microbial activity of finishing liquid compared with zwitterionic finishing liquid, S. aureus” value in experiment [1] (setting [9]) is recorded as “greater than that of the zwitterionic finishing liquid”. In [2] (setting [9]), the “anti-microbial activity of finishing liquid compared with zwitterionic finishing liquid, E. coli” value is “greater than that of the zwitterionic finishing liquid”. Moreover, the killing at 1 % stood at 99.9% in experiment [3] (times of washing 0); 99.9% in [3] (times of washing 10); 98.9% in experiment [3] (times of washing 50); 100% in experiment [4] (times of washing 0); 99.9% in experiment [4] (times of washing 10); 99.8% in experiment [4] (times of washing 50). Moreover, the killing at 1 % in experiment [5] (times of washing 0) is 100%; in experiment [5] (times of washing 10), 99.9%; in experiment [5] (times of washing 50), 99.2%.

On to `CCCCCCCCCCCCCCCCCC[n+]1ccn(CCOc2nc(Cl)nc(Cl)n2)c1` [Example 11], for which the “bacteriostatic rate, E. coli” value in experiment [6] is given as “over 99.99%”. Further, the “bacteriostatic rate, Aspergillus niger” value in [7] was “over 99.99%”. Further, the “bacteriostatic rate, Staphylococcus aureus” value in experiment [8] is reported as “over 99.99%”. In the experiment with house dust mites, the “acaricidal activity against house dust mites” value was “good acaricidal activity”. The killing at 1 % in [3] (times of washing 0) worked out at 99.9%; in experiment [3] (times of washing 10) it was 99.9%; in experiment [3] (times of washing 50) it was 99.6%; in [4] (times of washing 0), 100%; in experiment [4] (times of washing 10), 99.9%; in [4] (times of washing 50), 99.9%. Further, the results for the killing at 1 % in experiment [5] (times of washing 0), in experiment [5] (times of washing 10) and in experiment [5] (times of washing 50) were 100%, 99.9% and 99.9%, respectively.

As to `Br.CCCCCCCCCC[N+](C)(C)CN(CCOc1nc(Cl)nc(Cl)n1)C[N+](C)(C)CCCCCCCCCC` [Example 19], the MIC with Escherichia coli was determined as 4 µg/mL; in the experiment on Staphylococcus Aureus it was 1 µg/mL. In [1] (setting [10]), the “anti-microbial rate of the anti-microbial finishing liquid, S. aureus” value is given as greater than 99.9%. Besides, the “anti-microbial rate of the anti-microbial finishing liquid, E. coli” value in experiment [2] (setting [10]) is greater than 99.9%. In addition, the killing at 1 % in [3] (times of washing 0) was 99.9%; in [3] (times of washing 10), 99.9%; in experiment [3] (times of washing 50) it was 97.9%; in experiment [4] (times of washing 0), 100%; in experiment [4] (times of washing 10), 99.9%; in [4] (times of washing 50), 99.8%. The killing at 1 % in experiment [5] (times of washing 0) amounted to 100%; in [5] (times of washing 10), 99.9%; in [5] (times of washing 50), 99.7%.

With `Clc1nc(Cl)nc(OCCC[P+](c2ccccc2)(c2ccccc2)c2ccccc2)n1.[Br-]` [Example 21], the “Anti-microbial rate (%) of cotton textiles finished with compound E (1.0 wt %), C. albicans” value in experiment [3] (times of washing 0) is 99.9%; in experiment [3] (times of washing 10), 99.9%; in experiment [3] (times of washing 50), 93.9%. Further, the “Anti-microbial rate (%) of cotton textiles finished with compound E (1.0 wt %), S. aureus” value in experiment [4] (times of washing 0) was 99.99%; in experiment [4] (times of washing 10), 99.9%; in experiment [4] (times of washing 50) it was 98.9%. Further, the “Anti-microbial rate (%) of cotton textiles finished with compound E (1.0 wt %), E. coli” value is given as 99.99% in [5] (times of washing 0), 99.9% in [5] (times of washing 10) and 96.9% in experiment [5] (times of washing 50).
